This passage reports IC50 results from the Kinase Knowledgebase extract (Sharma et al. 2016).

For this test, the target named is MAPK14 (human) (UniProt Q16539). The experiment in a line: Inhibition of MAPK14 Kinase Activity.
Sequence of MAPK14 (human) (Q16539 whole entry, looked up): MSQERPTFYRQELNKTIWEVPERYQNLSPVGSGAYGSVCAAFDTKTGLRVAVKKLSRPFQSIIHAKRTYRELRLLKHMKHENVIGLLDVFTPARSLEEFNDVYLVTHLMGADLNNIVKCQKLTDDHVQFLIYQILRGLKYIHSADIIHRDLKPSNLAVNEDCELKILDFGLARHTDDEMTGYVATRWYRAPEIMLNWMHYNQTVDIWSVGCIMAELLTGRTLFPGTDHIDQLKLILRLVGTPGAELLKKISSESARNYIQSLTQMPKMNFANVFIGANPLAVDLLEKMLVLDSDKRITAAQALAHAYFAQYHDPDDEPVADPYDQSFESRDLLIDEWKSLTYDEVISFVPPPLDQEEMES

`Cc1c(F)cc(C(=O)NC2CC2)cc1-c1ccc(C(=O)N2CCCC2)cc1` gave an IC50 of less than 10 µM.

With `Cc1c(F)cc(C(=O)NC2CC2)cc1-c1ccc(C(=O)NC(C)(C)C(=O)C(C)C)cc1`, the concentration for half-maximal inhibition (IC50) is less than 10 µM.

`Cc1c(F)cc(C(=O)NC2CC2)cc1-c1ccc(C(=O)NCCS(C)(=O)=O)cc1`: the half-maximal inhibitory concentration (IC50) was less than 10 µM.

Consider `Cc1c(F)cc(C(=O)NC2CC2)cc1-c1ccc(C(=O)N2CCC2)cc1`, for which the 50% inhibitory concentration (IC50) was less than 10 µM.

The compound `Cc1c(F)cc(C(=O)NC2CC2)cc1-c1ccc(C(=O)NC(CO)C2CC2)cc1` (stereo unspecified) displayed an IC50 of less than 10 µM.

`Cc1c(F)cc(C(=O)NC2CC2)cc1-c1ccc(C(=O)NCC2(O)CCCCC2)cc1` yielded an IC50 of less than 10 µM.

Compound `CSCCNC(=O)c1ccc(-c2cc(C(=O)NC3CC3)cc(F)c2C)cc1` had an IC50 of less than 10 µM.

The compound `CCC(C)(C#N)NC(=O)c1ccc(-c2cc(C(=O)NC3CC3)cc(F)c2C)cc1` (stereo unspecified) registered a concentration for half-maximal inhibition (IC50) of less than 10 µM.

Compound `Cc1c(F)cc(C(=O)NC2CC2)cc1-c1ccc(C(=O)NCCC#N)cc1` displayed an IC50 of less than 10 µM.

Compound `Cc1c(F)cc(C(=O)NC2CC2)cc1-c1ccc(C(=O)NC2(C#N)CCCCC2)cc1` returned an IC50 of less than 10 µM.

On to `CC(=O)CC(C)(C)NC(=O)c1ccc(-c2cc(C(=O)NC3CC3)cc(F)c2C)cc1`, for which the concentration for half-maximal inhibition (IC50) was less than 10 µM.
